The source of these data is PubChem BioAssay AID2078 (The Scripps Research Institute Molecular Screening Center, 2009).

Each structure is given as a SMILES string.

The assay relates to Cytotoxicity. Briefly: STAT3 blockade with qPCR and toxicity readouts – cell-based, STAT1 panel, cytotoxicity, late-stage follow-up (AID 2078). Particulars: STAT3/STAT1 inhibition panel, cell reporter assay. For orientation: Quantitative PCR measures a nucleic acid by following its amplification.

On to `c1ccc(CC2CCN(c3ncnc4sccc34)CC2)cc1`, for which the CC50 – broadly, the concentration giving 50% cytotoxicity – is > 55.7 µM.
